{"source": "patent US10765654B2", "about": "“Methods and compounds for treating cancer” (University of Vermont and State Agricultural College, priority 2011, dated 2020)", "system": "GBM8 GSCs", "test": "Growth dynamics, unbiased trypan blue exclusion based cytometry", "format": "cell-based, human", "conditions": "GTA; GBM8 cells grown in DM", "protocol": "Growth dynamics were assessed using unbiased trypan blue exclusion based cytometry. Cells were plated (at 10,000 cells per well of a 24-well plate) directly in the absence or presence of 0.25% GTA. After 1, 3, and 5 days of treatment, cells were typsinized, collected via centrifugation, and counted according to the manufacturer's instructions (Countess Automated Cell Counter; Invitrogen Life Technologies; Carlsbad, Calif.).\nGrowth dynamics was determined as described in prior examples herein."}
{"molecule": "CC(=O)OCC(COC(C)=O)OC(C)=O", "note": "[GTA, glyceryltriacetate]", "values": [{"measurement": "Growth dynamics", "result": "reduced growth dynamics"}]}
